Like-named read-outs stand apart in the source and are kept apart here.
How the values were obtained:
Type in all cases: cell-based
Conditions in all cases: geometric mean of at least 2 assay runs, † = single assay run
[1] = system: HEK293 cells overexpressing APOL1 G2; experiment: APOL1 G2 HEK293 cell rescue assay (reversal of cell death caused by overexpression of APOL1)
Summary of the method: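 Each compound tested in duplicate wells on one plate per run, with values usually the geometric mean across at least two runs on different days, occasionally from one run only. Read-out: concentration giving half-maximal rescue of APOL1 G2 overexpression-induced death of HEK293 cells.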

[2] = system: Trypanosoma brucei Lister 427 VSG221 with APOL1 G0 recombinant protein; experiment: APOL1 G0 trypanosome cell rescue assay (Example B5)
Summary of the method: (§1)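 Viability read by CellTiter-Glo luminescence after 20 h co-incubation (37° C, 5% CO2) of 250 trypanosomes/well in modified HMI-9 with test compound (duplicate 11-point, 2-fold dilutions, 0.4% DMSO) and APOL1 protein, […]. Protein: mature residues 28-398, E. coli inclusion-body refolded, tag cleaved, in DDM.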

[3] = system: Trypanosoma brucei Lister 427 VSG221 with APOL1 G1 recombinant protein; experiment: APOL1 G1 trypanosome cell rescue assay (Example B5)
Summary of the method: as §1

[4] = system: Trypanosoma brucei Lister 427 VSG221 with APOL1 G2 recombinant protein; experiment: APOL1 G2 trypanosome cell rescue assay (Example B5)
Summary of the method: as §1

[5] = Homo sapiens, HEK293, HEK293 overexpressing APOL1 G2
[6] = Trypanosoma brucei, 20 h, read-out: APOL1 G0 Trypanosome Rescue EC50, Trypanosoma brucei Lister 427 VSG221 with APOL1 G0 recombinant protein, 20 hours, CellTiter-Glo
[7] = Trypanosoma brucei, 20 h, read-out: APOL1 G1 Trypanosome Rescue EC50, Trypanosoma brucei Lister 427 VSG221 with APOL1 G1 recombinant protein, 20 hours, CellTiter-Glo
[8] = Trypanosoma brucei, 20 h, read-out: APOL1 G2 Trypanosome Rescue EC50, Trypanosoma brucei Lister 427 VSG221 with APOL1 G2 recombinant protein, 20 hours, CellTiter-Glo
[9] = read-out: APOL1 G0 Trypanosome Rescue EC50, Trypanosoma brucei Lister 427 VSG221 with APOL1 G0 recombinant protein, 20 hours, CellTiter-Glo
[10] = read-out: APOL1 G1 Trypanosome Rescue EC50, Trypanosoma brucei Lister 427 VSG221 with APOL1 G1 recombinant protein, 20 hours, CellTiter-Glo
[11] = read-out: APOL1 G2 Trypanosome Rescue EC50, Trypanosoma brucei Lister 427 VSG221 with APOL1 G2 recombinant protein, 20 hours, CellTiter-Glo

Row | SMILES | EC50 [1, 5] [µM] | EC50 [2, 6] [µM] | EC50 [3, 7] [µM] | EC50 [4, 8] [µM] | EC50 ([1]; HEK293 overexpressing APOL1 G2) [µM] | EC50 [2, 9] [µM] | EC50 [3, 10] [µM] | EC50 [4, 11] [µM]
1 | CC(c1ncc(OCCN2CCC3(CC2)C(=O)Nc2ccc(Cl)cc23)cn1)S(C)(=O)=O (single isomer, unassigned) [Compound 2, 5-chloro-1′-[2-({2-[(1S) or (1R)-1-methanesulfonylethyl]pyrimidin-5-yl}oxy)ethyl]-1,2-dihydrospiro[indole-3,4′-piperidin]-2-one] | 0.134 | 0.192 | 0.191 | 0.0563 |  |  |  | 
2 | CC(c1ncc(OCCN2CCC3(CC2)C(=O)Nc2ccc(Cl)cc23)cn1)S(C)(=O)=O (single isomer, unassigned) [Compound 3, 5-chloro-1′-[2-({2-[(1R) or (1S)-1-methanesulfonylethyl]pyrimidin-5-yl}oxy)ethyl]-1,2-dihydrospiro[indole-3,4′-piperidin]-2-one] |  |  |  |  | 0.142 | 0.248 | 0.323 | 0.092
3 | CC(O)c1ncc(OCCN2CCC3(CC2)C(=O)Nc2ccc(C#N)cc23)cc1C(F)(F)F (single isomer, unassigned) [Compound 376, 1′-[2-({6-[(1S) or (1R)-1-hydroxyethyl]-5-(trifluoromethyl)pyridin-3-yl}oxy)ethyl]-2-oxo-1,2-dihydrospiro[indole-3,4′-piperidine]-5-carbonitrile] | 0.0469 |  |  |  |  | 0.0956 | 0.115 | 0.0399
4 | CC(O)c1ncc(OCCN2CCC3(CC2)C(=O)Nc2ccc(C#N)cc23)cc1C(F)(F)F (single isomer, unassigned) [Compound 377, 1′-[2-({6-(1S) or (1R)-1-hydroxyethyl]-5-(trifluoromethyl)pyridin-3-yl}oxy)ethyl]-2-oxo-1,2-dihydrospiro[indole-3,4′-piperidine]-5-carbonitrile] |  |  |  |  | 0.0859 | 0.205 | 0.271 | 0.0978
5 | CS(=O)(=O)C1(c2ncc(OCCN3CCC4(CC3)C(=O)Nc3ccc(C(F)F)cc34)cn2)CC1 [Compound 5, 5-(difluoromethyl)-1′-(2-{[2-(1-methanesulfonylcyclopropyl)pyrimidin-5-yl]oxy}ethyl)-1,2-dihydrospiro[indole-3,4′-piperidin]-2-one] | 0.213 | 0.15 | 0.171 | 0.052 |  |  |  | 
6 | CS(=O)(=O)C1(c2ncc(OCCN3CCC4(CC3)C(=O)Nc3ccc(OC(F)F)cc34)cn2)CC1 [Compound 6, 5-(difluoromethoxy)-1′-(2-{[2-(1-methanesulfonylcyclopropyl)pyrimidin-5-yl]oxy}ethyl)-1,2-dihydrospiro[indole-3,4′-piperidin]-2-one] | 0.121 | 0.381 | 0.47 | 0.137 |  |  |  | 
7 | O=C1CCc2cc(OCCN3CCC4(CC3)C(=O)Nc3ccc(Cl)cc34)ccc2N1 [Compound 82, 5-chloro-1′-{2-[(2-oxo-1,2,3,4-tetrahydroquinolin-6-yl)oxy]ethyl}-1,2-dihydrospiro[indole-3,4′-piperidin]-2-one] | 0.0722 | 0.254 | 0.344 | 0.113 |  |  |  | 
8 | CS(=O)(=O)C1(c2c(F)cc(OCCN3CCC4(CC3)C(=O)Nc3ccc(C#N)cc34)cc2F)COC1 [Compound 84, 1′-{2-[3,5-difluoro-4-(3-methanesulfonyloxetan-3-yl)phenoxy]ethyl}-2-oxo-1,2-dihydrospiro[indole-3,4′-piperidine]-5-carbonitrile] | 0.0649 | 0.101 | 0.144 | 0.05 |  |  |  | 
9 | O=C1Nc2ccc(Cl)cc2C12CCN(CCOc1ccc3c(cnn3[C@H]3C[C@@H](O)C3)c1)CC2 [Compound 85, 5-chloro-1′-[2-({1-[(cis)-3-hydroxycyclobutyl]-1H-indazol-5-yl}oxy)ethyl]-1,2-dihydrospiro[indole-3,4′-piperidin]-2-one] | 0.0703 | 0.115 | 0.19 | 0.0485 |  |  |  | 

Source: patent US12344610B2, “APOL1 inhibitors and methods of use” (Maze Therapeutics, Inc., priority 2022, dated 2025)
